Measured values from PubChem BioAssay AID1996.
Values after ≈ are worked out from the molar mass of the structure shown.

details: buffer; pH 7.4; 200.0 µM

SMILES | solubility kinetic
CC(C)C(=O)N1CCC(Cc2ccccc2)CC1 | 33.5 µg/mL (≈ 137 µM)
CCOc1ccc(S(=O)(=O)N(CC)CC)cc1N | > 40.9 µg/mL
CCN(CC)CCC#CC1(O)c2ccccc2-c2ccccc21 | > 45.8 µg/mL
c1ccc(Sc2ccccn2)cc1 | > 28.1 µg/mL
CN(C)C(=O)COc1ncnc2scc(-c3ccc(F)cc3)c12 | 45.8 µg/mL (≈ 138 µM)
COc1ccc(CNC(=O)c2ccc[nH]2)cc1Cl | > 39.7 µg/mL
N#Cc1ccc(OCC(O)CS(=O)(=O)c2ccccc2)cc1 (centres undefined) | 46.6 µg/mL (≈ 147 µM)
O=C(NC1CCCCC1)c1cc(-c2ccc(O)cc2)on1 | < 0.3 µg/mL
Cc1ccc2[nH]c(CSc3ccccc3)cc(=O)c2c1 | 14.9 µg/mL (≈ 53 µM)
O=C(CCS(=O)(=O)c1ccccc1)N1CCOCC1 | > 42.5 µg/mL
COc1ccc(OC)c(S(=O)(=O)NCCCn2ccnc2)c1 | 41.6 µg/mL (≈ 128 µM)
COC(=O)c1sccc1NC(=S)N1CCC(C(N)=O)CC1 | 42.5 µg/mL (≈ 130 µM)
CCO/N=C/C1=C(O)C(C(=O)OC)C(C)(C)CC1=O (centres undefined) | > 40.4 µg/mL
O=Cc1sc([O-])nc1-[n+]1ccc2ccccc2c1 | 5.1 µg/mL (≈ 19.9 µM)
CN1C(=O)C(=O)/C(=C(/O)c2ccccc2)C1c1ccc([N+](=O)[O-])cc1 (centres undefined) | > 50.7 µg/mL
O=C(CSc1ccc([N+](=O)[O-])cn1)Nc1nccs1 | 1.9 µg/mL (≈ 6.41 µM)
CCOC(=O)COn1c(=O)c(-c2ccccc2)[n+]([O-])c2ccccc21 | 35.2 µg/mL (≈ 103 µM)
CN(CCN(C)C(C)(C)C)C(=O)C(c1ccccc1)c1ccccc1 | 48 µg/mL (≈ 142 µM)
CC(C)(C)c1ccc(C(=O)Nc2ccc(F)cc2)s1 | < 0.6 µg/mL
Cc1ccccc1/C=C\c1nc(O)c([N+](=O)[O-])c(=O)[nH]1 | > 41 µg/mL

SMILES | solubility kinetic
O=C1CC(c2ccccc2)=Nc2ccc(Br)cc2N1 | 0.9 µg/mL (≈ 2.86 µM)
Cc1ccc(Oc2c(C)nc(-c3ccccc3)[nH]c2=O)cc1 | 1 µg/mL (≈ 3.42 µM)
CCN(CC)C(=O)c1c(-c2ccccc2)oc2ccc(O)cc12 | 31.8 µg/mL (≈ 103 µM)
O=C(COC(=O)C1=COCCO1)Nc1ccc(F)c(F)c1 | 4.6 µg/mL (≈ 15.4 µM)
COc1ccccc1C(=O)NCCC(=O)NCc1ccncc1 | > 47 µg/mL
CN1C(=O)C(c2ccc([N+](=O)[O-])cc2[N+](=O)[O-])C(=O)N(C)C1=O | > 48.3 µg/mL
COC(=O)c1cc(C(=O)OCC(=O)Nc2ccc(N3CCOCC3)cc2)cc([N+](=O)[O-])c1 | 11.8 µg/mL (≈ 26.6 µM)
COc1ccccc1C1CCN(C(=O)C2CCCCC2)CC1 | 38.6 µg/mL (≈ 128 µM)
COc1ccc(NC(=O)NS(=O)(=O)c2ccc(C)cc2)cc1OC | > 52.6 µg/mL
Brc1ccccc1Cn1cnc2ccccc21 | 27.8 µg/mL (≈ 96.8 µM)
Cc1ccc(NC(=O)CCCc2c[nH]c3ccccc23)nc1 | 3.8 µg/mL (≈ 13 µM)
Cn1c(Cl)c(/C=N/OC(=O)C(C)(C)C)c2ccccc21 | 0.7 µg/mL (≈ 2.39 µM)
O=C(CNC(=O)c1ccc(Br)o1)NC1CCCCC1 | > 49.4 µg/mL
COc1cc(OC)cc(C(=O)NC(c2ccccc2)c2ccccc2)c1 | < 0.7 µg/mL
CCOc1ccccc1OCC(=O)Nc1cc(C)on1 | > 41.4 µg/mL
COc1cc(C(=O)NCc2cccs2)ccc1OCc1c(C)noc1C | 5.9 µg/mL (≈ 15.8 µM)
COCCn1c(N)c(Sc2ccccc2)c(=O)[nH]c1=O | 41.4 µg/mL (≈ 141 µM)
CS(=O)(=O)c1ccc(Cl)c(NC(=O)CCN2C(=O)NC3(CCCC3)C2=O)c1 | > 62.1 µg/mL
O=C(NC1CC1)c1cccc(NC(=O)c2cn3ccccc3n2)c1 | > 48.1 µg/mL
CN(Cc1ccccc1)C(=O)C1CCN(S(C)(=O)=O)CC1 | > 46.6 µg/mL

SMILES | solubility kinetic
O=C(NCC1CCCCC1)c1cccc(Br)c1 | 2.2 µg/mL (≈ 7.43 µM)
COCCNC(=O)CSc1ncnc2sc(-c3ccccc3)cc12 | 1 µg/mL (≈ 2.78 µM)
Cc1c(Cl)cccc1NC(=O)CCC(=O)c1cccs1 | 11.9 µg/mL (≈ 38.7 µM)
O=C(Cc1ccc(Br)cc1)OCC(=O)N1CCOCC1 | > 51.3 µg/mL
CCN(CC)CCNS(=O)(=O)c1ccc2c3c(cccc13)C(=O)N2 | > 52.1 µg/mL
Cc1ccnc(S(=O)(=O)Cc2ccc([N+](=O)[O-])cc2)n1 | > 44 µg/mL
O=C(C1COc2ccccc2O1)N1CCN(c2ccc(C(F)(F)F)cn2)CC1 (centres undefined) | 16.3 µg/mL (≈ 41.4 µM)
CCOC(=O)C1=C(COC(=O)COc2ccccc2C=O)NC(=O)NC1C (centres undefined) | > 56.5 µg/mL
Cc1noc(C)c1C(=O)OCC(=O)N(C)C1(C#N)CCCCC1 | > 47.9 µg/mL
CC(OC(=O)c1ccc2c(c1)S(=O)(=O)c1ccccc1C2=O)C(N)=O (centres undefined) | 29.3 µg/mL (≈ 81.5 µM)
O=C(COC(=O)c1cc(Br)ccc1O)NC12CC3CC(CC(C3)C1)C2 | 3.1 µg/mL (≈ 7.59 µM)
CC1CC1C(=O)Nc1cc(C(F)(F)F)ccc1N1CCOCC1 (centres undefined) | 40.9 µg/mL (≈ 125 µM)
O=C(C1CCC1)N1CCN(c2ccnc3cc(Cl)ccc23)CC1 | 45.4 µg/mL (≈ 138 µM)
Cc1ccc(Cn2c(C)nc3ccc([N+](=O)[O-])cc3c2=O)cc1 | 1.5 µg/mL (≈ 4.85 µM)
COc1cc(C#N)c(N=C(SCC#N)N2CCOCC2)cc1OC | > 52 µg/mL
CCc1ccc(NC(=O)c2cc(Br)ccc2Br)cc1 | < 0.8 µg/mL
CCCC(=NC(C)CC)C1=C(O)CC(c2ccccc2)CC1=O (centres undefined) | 39 µg/mL (≈ 124 µM)
Cc1ccc(S(=O)(=O)n2cnc3ccccc32)cc1[N+](=O)[O-] | > 47.6 µg/mL
Cc1ccccc1C(=O)Nc1ccc(N2CCCC2)cc1.Cl | 7.8 µg/mL
